{
  "source": "patent US20240245639A1",
  "about": "“Dermal Application of Retinoic Acid Receptor Agonists for Amelioration of Hypertrophic Scar” (Northwestern University, priority 2023, published 2024)",
  "key": {"[1]": {"test_system": "primary human keloid fibroblasts", "test": "Collagen I deposition in keloid fibroblasts (Western blot, immunofluorescence)", "type": "cell-based", "conditions": "keloid fibroblasts, 1,000 nM Ch55, presence and absence of TGF-β1, 48 hours", "protocol": "Since overproduction of collagen is characteristic of fibroblasts in tissue fibrosis, including hypertrophic scar and keloid, we wished to determine whether Ch55 also affects deposition of collagen I by these fibroblasts.\nCells cultured on glass coverslips were fixed in 4% paraformaldehyde for 30 minutes at room temperature. Cells were blocked in 10% normal goat serum and incubated overnight at 4° C. in solutions of the following primary antibodies: Rabbit monoclonal α-human α-SMA (1:500 dilution, catalog #192455, Cell Signaling Technology, Danvers M A) or mouse α-human COL1A1 (1:1000 dilution, catalog #M-38c, DSHB, Iowa City, IA). The following day, cells were incubated in 1:200 diluted solutions of goat-α-rabbit IgG or donkey-α-mouse IgG Alexafluor 488-conjugated secondary antibodies (A11034 or A21202, Invitrogen) containing Alexafluor 568-conjugated phalloidin (A12380, Invitrogen) for 2 hours in the dark at room temperature, before a 20 minute counterstain in 500 ng/mL DAPI. […]\nHarvested scar tissues were incubated in 0.5M ammonium thiocyanate for 20 minutes, followed by mechanical separation of dermis and epidermis using a dissecting microscope. […] Protein concentrations of cell culture and tissue samples were determined using a DC protein assay (BioRad). […]"}, "[2]": {"test_system": "excisional wound-induced hypertrophic scarring in the ears of New Zealand White rabbits", "test": "Rabbit ear hypertrophic scar model", "type": "in vivo", "conditions": "POD28; for amount of type I collagen in the dermis (Western blot, densitometry) / erythema in developed scars: intradermal; for erythema in developed scars: three injections", "protocol": "Harvested scars were processed and analyzed to determine scar elevation index (SEI), a common quantitative histological measurement used to assess scar hypertrophy (FIG. 17). […] MATERIALS AND METHODS Materials […] dihydrochloride hydrate, homoharringtonine, Ch55 and panobinostat were acquired from Fisher Scientific (Waltham, MA). AZD-7762 was acquired from Selleck Chemicals (Houston, TX). For in vitro work, emetine dihydrochloride hydrate was dissolved in sterile H2O at 50 mM. Homoharringtonine was dissolved in DMSO at 10 mg/mL. Panobinostat was dissolved in DMSO at 425 μM. […] Recombinant human TGF-β1 (Sigma-Aldrich) was dissolved in sterile H2O at 50 µg/mL. All-trans-retinoic acid (Thermo Scientific) was dissolved in DMSO at 10 mM. […] All animal experiments were approved prior to initiation by the Northwestern University Institutional Animal Care and Use Committee (IACUC). Rabbit experiments were performed in female New Zealand White rabbits (Envigo, Indianapolis, IN) of mass 2.5-3 kg. The hypertrophic scar model was performed as described in previous publications (Dolivo et al., Jia et al., 2017, Xie et al., 2020). Briefly, on each ear, six full-thickness circular excisional wounds of 7-mm diameter were created down to the perichondrium using biopsy punches, and excised tissue was removed gently using forceps. Wounds were covered with Tegaderm (3M Healthcare, St. Paul, MN) and wounds were allowed to re-epithelialize until post-operative day (POD) 12. […] Injections were performed on POD16, POD19, and POD22. On POD28, measurements of erythema were performed using a DermaLab Combo (CyberDerm, Broomall, PA) immediately prior to euthanasia and tissue harvest. Harvested scar tissues were incubated in 0.5M ammonium thiocyanate for 20 minutes, followed by mechanical separation of dermis and epidermis using a dissecting microscope. Isolated dermal tissues were minced with a razor blade, submerged in RIPA buffer, and homogenized in the presence of 2 mm zirconia beads using a MagNA Lyser (Roche, Basel, Switzerland). Alternatively, cell culture samples were detached from the culture surface by trypsinization, collected by centrifugation, and lysed in RIPA buffer. Protein concentrations of cell culture and tissue samples were determined using a DC protein assay (BioRad). Five micrograms of total protein were loaded onto polyacrylamide gels and subjected to SDS-PAGE before transfer to nitrocellulose membranes, blocking with 5% dry milk in TBS-T, and probing with target-specific primary antibodies overnight. Species-specific secondary antibody solutions were added to membranes, and chemiluminescent signal was developed with Amersham ECL Western blotting detection reagent using X-ray film. Harvested tissues were fixed in 10% neutral-buffered formalin for 24 hours before serial dehydration and embedding in paraffin. […] Slides were deparaffinized and rehydrated in xylene and serial ethanol. Tissue samples were stained with hematoxylin and eosin (H&E), Modified Masson's Trichrome stain (Scytek, Logan, UT), or picrosirius red/fast green according to standard protocols."}, "[3]": {"test_system": "primary human foreskin fibroblasts", "test": "Antagonism of fibroblast activation in presence or absence of TGF-β1 (qRT-PCR, Western blot, immunofluorescence)", "type": "cell-based"}, "[4]": {"test_system": "cellular retinoic acid binding protein (CRABP)", "conditions": "cited from earlier work"}, "[5]": {"conditions": "1,000 nM Ch55, ± 10 ng/mL TGF-β1, 24 hour"}, "[6]": {"conditions": "1,000 nM Ch55, ± TGF-β1, 48 hours"}},
  "data": [
    {"smiles": "CC(C)(C)c1cc(C(=O)/C=C/c2ccc(C(=O)O)cc2)cc(C(C)(C)C)c1", "note": "[Ch55]", "values": [
      {"measurement": "collagen I deposition (Western blot, immunofluorescence)", "setting": "[1]", "result": "dramatic reduction"},
      {"measurement": "collagen density of the scars (Masson's Trichrome, picrosirius red/fast green)", "setting": "[2]; Ch55-treated wounds", "result": "possible decrease"},
      {"measurement": "amount of type I collagen in the dermis (Western blot, densitometry)", "setting": "[2]; high dose (10 μg)", "result": "sufficient to reduce"},
      {"measurement": "erythema in developed scars", "setting": "[2]; high dose (10 μg)", "result": "significantly decreased"},
      {"measurement": "amount of type I collagen in the dermis (Western blot, densitometry)", "setting": "[2]; low dose (2 μg)", "result": "sufficient to reduce"},
      {"measurement": "erythema in developed scars", "setting": "[2]; low dose (2 μg)", "result": "not statistically significant"},
      {"measurement": "spread area per cell (brightfield microscopy)", "setting": "[3]; 1,000 nM Ch55, 48 hours", "result": "decreased"},
      {"measurement": "deposition of collagen I (immunofluorescence)", "setting": "[3]; 1,000 nM Ch55, presence and absence of TGF-β1, 48 hours", "result": "greatly diminished deposition"},
      {"measurement": "basal and TGF-β1-induced expression of ACTA2 (qRT-PCR)", "setting": "[3]; [5]", "result": "significantly downregulated"},
      {"measurement": "basal and TGF-β1-induced expression of CCN2 (qRT-PCR)", "setting": "[3]; [5]", "result": "significantly downregulated"},
      {"measurement": "basal and TGF-β1-induced expression of SERPINE1 (qRT-PCR)", "setting": "[3]; [5]", "result": "significantly downregulated"},
      {"measurement": "collagen deposition as assessed by expression of type I collagen (Western blot)", "setting": "[3]; [6]", "result": "dramatically antagonized"},
      {"measurement": "fibroblast activation as assessed by expression of α-SMA (Western blot)", "setting": "[3]; [6]", "result": "dramatically antagonized"},
      {"measurement": "affinity for CRABP", "setting": "[4]", "result": "low affinity"}
    ]}
  ]
}
